Test results from US20250352587A1, “PROBIOTIC AND USE THEREOF” (priority 2023, published 2025).
In brackets after ≈: the same amount, converted by molar mass. Where two headings read alike, the source gives them in different places.

Columns and labels:
Pdist-1 = experiment: Antibiotic susceptibility test, broth dilution MIC; assay type: cell-based, Parabacteroides distasonis; conditions: for MIC: Parabacteroides distasonis, read-out: MIC against Pdist-1
Description: (§1) According to the requirements for antibiotic susceptibility tests of anaerobic bacteria in “Technical specification on antimicrobial susceptibility tests” (Standard No. WS/T 639-2018) of the People's Republic of China Health Industry Standard, the susceptibility of the strains to antibiotics was determined by a broth dilution method, and the MIC values were recorded.
(§2) 0.1 mL of the prepared 5 bacterial suspensions were sequentially pipetted into 96-well plates containing equal volumes of prepared antibacterial drugs, such that the final concentration of the inoculated bacteria was 5×10^5 CFU/mL, and the drug concentrations were 256 μg/mL, 128 μg/mL, 64 μg/mL, 32 μg/mL, 16 μg/mL, 8 μg/mL, 4 μg/mL, 2 μg/mL, 1 μg/mL, 0.5 μg/mL, 0.25 μg/mL, and 0.125 μg/mL, respectively. Incubation: The above 96-well plates were anaerobically incubated in an incubator at 37° C. for 46-48 h.

Lferm-1 = experiment: Antibiotic susceptibility test, broth dilution MIC; assay type: cell-based, Limosilactobacillus fermentum; conditions: for MIC: Limosilactobacillus fermentum, read-out: MIC against Lferm-1
Description: as §1, §2

Eaviu-1 = experiment: Antibiotic susceptibility test, broth dilution MIC; assay type: cell-based, Enterococcus avium; conditions: for MIC: Enterococcus avium, read-out: MIC against Eaviu-1
Description: as §1, §2

Bbifi-1 = experiment: Antibiotic susceptibility test, broth dilution MIC; assay type: cell-based, Bifidobacterium bifidum; conditions: for MIC: Bifidobacterium bifidum, read-out: MIC against Bbifi-1
Description: as §1, §2

Lsali-1 = experiment: Antibiotic susceptibility test, broth dilution MIC; assay type: cell-based, Lactobacillus salivarius; conditions: anaerobic, 37° C., 46-48 h; for MIC: Ligilactobacillus salivarius, read-out: MIC against Lsali-1
Description: as §1, §2

colon injury = experiment: Colon histopathology (HE staining) in mice with 5-FU-induced diarrhea; assay type: in vivo; conditions: panels 1A and 2A in FIG. 13
Description: After the animal experiment, the middle colon of the mice was collected and fixed in 4% paraformaldehyde for 24 h. The fixed colon tissues were sequentially dehydrated, transparentized, waxed, and embedded. The embedded paraffin blocks of colon tissues were sectioned at a thickness of 5 μm, followed by spreading and baking, and the dried sections were subjected to conventional HE staining. The pathological changes were observed under an optical microscope. Pathological scoring was performed according to Table 6 below, and the total pathological scores (the sum of the scores of all indices) were calculated.

[1] = broth dilution, anaerobic, 37° C., 46-48 h

Row | Compound | MIC (Pdist-1; [1]) | MIC (Lferm-1; [1]) | MIC (Lsali-1) | MIC (Eaviu-1; [1]) | MIC (Bbifi-1; [1]) | further results
1 | CN[C@H](CC(C)C)C(=O)N[C@H]1C(=O)N[C@@H](CC(N)=O)C(=O)N[C@H]2C(=O)N[C@H]3C(=O)N[C@H](C(=O)N[C@H](C(=O)O)c4cc(O)cc(O)c4-c4cc3ccc4O)[C@H](O)c3ccc(c(Cl)c3)Oc3cc2cc(c3O[C@@H]2O[C@H](CO)[C@@H](O)[C@H](O)[C@H]2O[C@H]2C[C@](C)(N)[C@H](O)[C@H](C)O2)Oc2ccc(cc2Cl)[C@H]1O [Vancomycin] | – | – | – | – | – | MIC (Pdist-1): 8 µg/mL (≈ 5.52 µM); MIC (Lferm-1): 0.125 µg/mL (≈ 0.0863 µM); MIC (Eaviu-1): 2 µg/mL (≈ 1.38 µM); MIC (Bbifi-1): 1 µg/mL (≈ 0.69 µM)
2 | [H]/N=C(/N)N[C@H]1[C@H](O)[C@@H](O)[C@H](O[C@@H]2O[C@@H](C)[C@](O)(C=O)[C@H]2O[C@@H]2O[C@@H](CO)[C@H](O)[C@@H](O)[C@@H]2NC)[C@@H](N/C(N)=N\[H])[C@@H]1O [Streptomycin] | < 0.125 µg/mL | 0.125 µg/mL (≈ 0.215 µM) | 128 µg/mL (≈ 220 µM) | 128 µg/mL (≈ 220 µM) | 128 µg/mL (≈ 220 µM) | –
3 | C[C@@H](O)[C@H]1C(=O)N2C(C(=O)O)=C(SCCN=CN)C[C@H]12 [Imipenem] | 16 µg/mL (≈ 53.4 µM) | – | – | – | – | –
4 | CCC[C@@H]1C[C@@H](C(=O)N[C@@H]([C@H]2O[C@H](SC)[C@H](O)[C@@H](O)[C@H]2O)[C@H](C)Cl)N(C)C1 [Clindamycin] | 16 µg/mL (≈ 37.6 µM) | < 0.125 µg/mL | 8 µg/mL (≈ 18.8 µM) | 4 µg/mL (≈ 9.41 µM) | 1 µg/mL (≈ 2.35 µM) | –
5 | CC[C@H]1OC(=O)[C@H](C)[C@@H](O[C@H]2C[C@@](C)(OC)[C@@H](O)[C@H](C)O2)[C@H](C)[C@@H](O[C@@H]2O[C@H](C)C[C@H](N(C)C)[C@H]2O)[C@](C)(O)C[C@@H](C)C(=O)[C@H](C)[C@@H](O)[C@]1(C)O [Erythromycin] | 32 µg/mL (≈ 43.6 µM) | < 0.125 µg/mL | 0.125 µg/mL (≈ 0.17 µM) | 0.25 µg/mL (≈ 0.341 µM) | 0.125 µg/mL (≈ 0.17 µM) | –
6 | CN(C)[C@@H]1C(O)=C(C(N)=O)C(=O)[C@@]2(O)C(O)=C3C(=O)c4c(O)cccc4[C@@](C)(O)[C@H]3C[C@@H]12 [Tetracycline] | 8 µg/mL (≈ 18 µM) | < 0.125 µg/mL | 0.5 µg/mL (≈ 1.13 µM) | 0.5 µg/mL (≈ 1.13 µM) | 0.125 µg/mL (≈ 0.281 µM) | –
7 | Gentamicin | – | – | – | – | – | MIC against Pdist-1 (Pdist-1; [1]): <0.125 µg/mL; MIC against Lferm-1 (Lferm-1; [1]): 0.125 µg/mL; MIC against Lsali-1 (Lsali-1): 16 µg/mL; MIC against Eaviu-1 (Eaviu-1; [1]): 8 µg/mL; MIC against Bbifi-1 (Bbifi-1; [1]): 8 µg/mL
8 | CN(C)C(=O)C(CCN1CCC(O)(c2ccc(Cl)cc2)CC1)(c1ccccc1)c1ccccc1 [loperamide] | – | – | – | – | – | colon histopathological observation (HE staining) (colon injury): the colon structure was relatively intact, mucosal epithelial cells showed no significant necrosis, the number of goblet cells was significantly increased, and only a small amount of lymphocyte infiltration was observed in the lamina propria
9 | C[C@H]1COc2c(N3CCN(C)CC3)c(F)cc3c(=O)c(C(=O)O)cn1c23 [Levofloxacin] | 8 µg/mL (≈ 22.1 µM) | – | – | – | – | –
10 | CO[C@H]1/C=C/O[C@@]2(C)Oc3c(C)c(O)c4c(O)c(c(/C=N/N5CCN(C)CC5)c(O)c4c3C2=O)NC(=O)/C(C)=C\C=C\[C@H](C)[C@H](O)[C@@H](C)[C@@H](O)[C@@H](C)[C@H](OC(C)=O)[C@@H]1C [Rifampicin] | < 0.125 µg/mL | – | – | – | – | –
11 | O=C(N[C@H](CO)[C@H](O)c1ccc([N+](=O)[O-])cc1)C(Cl)Cl [Chloramphenicol] | – | 0.125 µg/mL (≈ 0.387 µM) | 256 µg/mL (≈ 792 µM) | 128 µg/mL (≈ 396 µM) | 8 µg/mL (≈ 24.8 µM) | –
12 | CC1(C)S[C@@H]2[C@H](NC(=O)[C@H](N)c3ccccc3)C(=O)N2[C@H]1C(=O)O [Ampicillin] | 8 µg/mL (≈ 22.9 µM) | 0.5 µg/mL (≈ 1.43 µM) | 4 µg/mL (≈ 11.4 µM) | 4 µg/mL (≈ 11.4 µM) | 0.25 µg/mL (≈ 0.715 µM) | –
13 | Penicillin | – | – | – | – | – | MIC against Pdist-1 (Pdist-1; [1]): 8 µg/mL
14 | CO/N=C(\C(=O)N[C@@H]1C(=O)N2C(C(=O)O)=C(CSc3nc(=O)c(=O)[nH]n3C)CS[C@H]12)c1csc(N)n1 [Ceftriaxone] | 16 µg/mL (≈ 28.9 µM) | – | – | – | – | –
15 | NC[C@H]1O[C@H](O[C@H]2[C@H](O)[C@@H](O[C@H]3O[C@H](CO)[C@@H](O)[C@H](N)[C@H]3O)[C@H](N)C[C@@H]2N)[C@H](O)[C@@H](O)[C@@H]1O [Kanamycin] | – | – | 256 µg/mL (≈ 528 µM) | – | – | –
